This assay has as its system BAPN-induced aortic aneurysm and dissection. In words: Disulfiram in BAPN-induced aortopathy mouse model, survival. The assay is classed as in vivo. To be noted: male C57BL/6J mice, 3 weeks old, BAPN 0.5% wt/vol in drinking water for 28 days, disulfiram 10 mg/mL in sesame oil, daily I.P. 100 μL per 20 g body weight, day -1 to 27, compared to vehicle. As for the experimental part:
For the evaluation, an animal model of aortic aneurysm as described above was used to evaluate effects of disulfiram on aortic aneurysm/aortopathy. The model comprised administration of BAPN, i.e., BAPN-induced aortopathy in a mouse model. Specifics of induction of hypercholesteremia and administration of BAPN were substantially as described supra. Male C57BL/6J mice at 3 weeks old were administered beta-aminopropionitrile (BAPN, 0.5% wt/vol) in drinking water for 28 days to induce aortic aneurysm and dissection.
The mice were separated randomly into two groups: control and treatment. For the control group, sesame oil was administered daily via intraperitoneal (I.P.) injection at 100 μL per 20 g body weight from day −1 to 27 (day −1 is the day before the first day of BAPN administration). Simultaneously, for treatment group, disulfiram at 10 mg/mL in sesame oil was administered daily via I.P. injection at 100 μL per 20 g body weight. Animal survival was monitored for 28 days during BAPN administration.

The structures appear in SMILES notation.

`CCN(CC)C(=S)SSC(=S)N(CC)CC` [disulfiram, tetraethyldisulfanedicarbothioamide]: the Animal survival result is given as “statistically significant increases in days of survival”. Besides, the Animal survival entry (listed as Disulfiram) is “protects against death from aortopathy”.

(Values after US20240139229A1, “TREATMENT FOR AORTOPATHY” (UNIVERSITY OF KENTUCKY RESEARCH FOUNDATION, priority 2021, published 2024).)
